Data: US10988465B2, “CXCR4 inhibitors and uses thereof” (X4 Pharmaceuticals, Inc., priority 2016, dated 2021)

Key:
[1] = target: T1, CXCR-4 transfected U87 cell line (U87.CXCR4) (Homo sapiens, UniProt P61073); experiment: Intracellular CXCL-12-induced calcium mobilization assay (FLIPR); format: cell-based; conditions: U87.CXCR4 cells; CXCL-12 25-50 ng/mL; compound added 15 min before; read-out: IC50 CXCL-12 Ca^2+ flux U87.CXCR4+
T1 construct: expressed in transfected cells; host or cells: U87 (U87.CXCR4)
T1 sequence (P61073 whole entry): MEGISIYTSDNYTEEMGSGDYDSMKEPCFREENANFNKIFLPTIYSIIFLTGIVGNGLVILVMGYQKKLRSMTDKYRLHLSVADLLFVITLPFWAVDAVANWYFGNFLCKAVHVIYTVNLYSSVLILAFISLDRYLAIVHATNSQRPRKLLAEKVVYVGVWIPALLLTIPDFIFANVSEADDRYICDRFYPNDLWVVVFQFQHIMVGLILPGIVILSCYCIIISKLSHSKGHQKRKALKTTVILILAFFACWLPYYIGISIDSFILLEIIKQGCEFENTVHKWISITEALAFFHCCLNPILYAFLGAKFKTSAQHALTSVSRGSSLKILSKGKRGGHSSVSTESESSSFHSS
Procedure, shortened: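 U87 cells stably expressing human CXCR4, loaded with Fluo-2 AM (4 μM final) for 45 min at 37 °C in HBSS/20 mM HEPES/0.2% BSA, pH 7.4. Calcium flux triggered by CXCL-12 (25-50 ng/mL) was followed by FLIPR fluorescence over time at 37 °C.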

[2] = target: T2, Jurkat cells expressing CXCR4 (Homo sapiens, UniProt P61073); experiment: Chemokine (CXCL12-AF647) binding inhibition assay; conditions: CXCL12-AF647 25 ng/mL, read-out: IC50 CXCL-12 binding Jurkat
T2 construct: endogenous in cells; host or cells: Jurkat
T2 sequence (P61073 whole entry): as above
Procedure, shortened: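 Cells in HBSS, 20 mM HEPES, 0.2% BSA, pH 7.4, preincubated 15 min at room temperature with compound, then 25 ng/mL CXCL12-AF647 for 30 min. After washing and paraformaldehyde fixation, bound ligand read by flow cytometry; percent inhibition calculated from MFI relative to unlabeled and ligand-only controls.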

in vitro = conditions: human, Caco-2, pH 7.4
Procedure, shortened: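 Caco-2 monolayers, checked by TEER with Lucifer yellow as marker, were dosed with 10 μM compound in HBSS pH 7.4 in A-to-B and B-to-A directions. Incubation was 90 min at 37° C, in duplicate. Samples were quantified by LC-MS/MS and Papp calculated.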

[3] = Mouse brain uptake assay (MBUA), 3 mg/kg IV, 0-1 h, 3 time points; format: in vivo, male CD1 mice; conditions: for Kp / clearance / half-life / AUC(0-t) / Kp uu: male; for Kp: CD1, mouse, brain/plasma, iv, 3 mg/kg; for clearance / half-life: CD1, plasma, 3 time points; for clearance / half-life / AUC(0-t) / Kp uu / fraction unbound: mouse; for clearance / half-life / AUC(0-t) / Kp uu: 3 mg/kg IV, 0-1 h; for half-life: read-out: t½ (converted); for AUC(0-t) / Kp uu: CD1; for Kp uu: unbound brain/unbound plasma, read-out: Kp, uu
Procedure: (§1) Example 38: Pharmacokinetics and Brain Penetration Experiment to Determine Brain and Plasma Concentrations of Compounds after IV Administration to Male CD1 Mice
(§2) The study design (9 animals) consisted of administrating the drug (IV: 3 mg/kg (5 mL/kg) via tail vein injection) and collecting samples at terminal bleeding for plasma and brain at 0.083, 0.5 and 1 h. The IV dosing solution was prepared in 50 mM citrate buffer (pH 4.0) at 0.6 mg/mL. The blood collection was performed as follows: the animal was restrained manually and approximately 150 μL blood/time point was collected into a dipotassium EDTA tube via retro orbital puncture under anesthesia with isoflurane. The blood sample was put on ice and centrifuged to obtain a plasma sample (2000 g, 5 min under 4° C.) within 15 minutes. The brain collection was performed as follows: a mid-line incision was made in the animal's scalp and the skin was retracted. Using small bone cutters and rongeurs, the skull overlying the brain was removed. The brain was removed using a spatula and the brain rinsed with cold saline. The brain was placed in screw-top tubes, and the tubes were stored at −70° C. until analysis.
(§3) An aliquot of 30 μL sample was added to 150 μL MeCN containing 50 ng/mL IS (Dexamethasone). The mixture was vortexed for 5 min and centrifuged at 14,000 rpm for 5 min. An aliquot of 5 μL supernatant was injected for LC-MS/MS analysis.
(§4) An aliquot of 30 μL brain homogenate (brain:PBS=1:3, w/v) sample was added to 150 μL IS in MeCN (Dexamethasone, 50 ng/mL). The mixture was vortexed for 5 min and centrifuged at 14,000 rpm for 5 min. An aliquot of 5 μL supernatant was injected for LC-MS/MS analysis.
(§5) The sample analysis was performed on LCMS/MS-003 (API4000, triple quadruple) under the following conditions: positive ion, ESI, MRM detection using dexamethasone as internal standard. HPLC conditions: mobile phase A: H2O (0.025% formic acid (FA) with 1 mM NH4OAc); mobile phase B: MeOH (0.025% FA with 1 mM NH4OAc) on Waters X-Bridge C18 (2.1×50 mm, 2.5 μm) column at 60° C.

[4] = Mouse brain uptake assay (MBUA), 3 mg/kg IV, 0-24 h, 4 time points; format: in vivo, male CD1 mice; conditions: for Kp / clearance / half-life / AUC(0-t) / Kp uu: male; for Kp: CD1, mouse, brain/plasma, iv, 3 mg/kg; for clearance / half-life: CD1, plasma, 4 time points; for clearance / half-life / AUC(0-t) / Kp uu / fraction unbound: mouse; for clearance / half-life / AUC(0-t) / Kp uu: 3 mg/kg IV, 0-24 h; for half-life: read-out: t½ (converted); for AUC(0-t) / Kp uu: CD1; for Kp uu: unbound brain/unbound plasma
Procedure: as §1, §2, §3, §4, §5
A similar experiment was performed with 4 time points taken from 0-24 h.

[5] = fraction unbound to brain proteins, read-out: Fu (b) %
[6] = fraction unbound to plasma proteins, read-out: Fu (p) %

Structure (SMILES) | IC50 [1] | IC50 [2] | Papp A→B at 90 min, 10 μM (in vitro) | Papp B→A at 90 min, 10 μM (in vitro) | efflux ratio at 90 min, 10 μM (in vitro) | Kp [4] | clearance [4] | half-life [4] | AUC(0-t) ([4]; brain, read-out: AUClast (b)) | AUC(0-t) ([4]; plasma, read-out: AUClast (P)) | Kp uu [4] | fraction unbound [4, 5] | fraction unbound [4, 6] | other results
CN1CCN(c2cccc3nc([C@H]4CCC[C@@H](c5ncccc5Cl)N4C)[nH]c23)CC1 [I-9, 2-((2R,6S)-6-(3-chloropyridin-2-yl)-1-methylpiperidin-2-yl)-7-(4-methylpiperazin-1-yl)-1H-benzo[d]imidazole] | 100 to 1000 nM | 0.01 to 100 nM | 10 to 30 ×10⁻⁶ cm/s | 10 to 30 ×10⁻⁶ cm/s | 0.1 to 10 | – | – | – | – | – | – | – | – | Kp [3]: 2.51; clearance [3]: 77.2 mL/min/kg; half-life [3]: 16 min; AUC(0-t) ([3]; brain, read-out: AUClast (b)): 1510 ng·h/mL; AUC(0-t) ([3]; plasma, read-out: AUClast (P)): 601 ng·h/mL; Kp uu [3]: 0.73; fraction unbound [3, 5]: 0.016; fraction unbound [3, 6]: 0.055
Cc1cccnc1[C@@H]1CCC[C@H](c2nc3cccc(N4CC5CCC(C4)N5C)c3[nH]2)N1C [I-56] | 0.01 to 100 nM | 0.01 to 100 nM | 10 to 30 ×10⁻⁶ cm/s | 10 to 30 ×10⁻⁶ cm/s | 0.1 to 10 | 1.94 | 32.3 mL/min/kg | 184 min | 3000 ng·h/mL | 1540 ng·h/mL | 0.35 | 0.013 | 0.073 | –
Cc1c(Cl)ccnc1[C@@H]1CCC[C@H](c2nc3cccc(N4CCN(C)CC4)c3[nH]2)N1C [I-82] | 0.01 to 100 nM | 0.01 to 100 nM | 10 to 30 ×10⁻⁶ cm/s | 10 to 30 ×10⁻⁶ cm/s | 0.1 to 10 | 4.27 | 172 mL/min/kg | 16.3 min | 1150 ng·h/mL | 269 ng·h/mL | 0.65 | 0.005 | 0.033 | –
CN1[C@@H](c2nc3cccc(N4CCN5CCCC5C4)c3[nH]2)CCC[C@H]1c1ncccc1Cl (stereo partly drawn) [I-96] | 100 to 1000 nM | 0.01 to 100 nM | – | – | – | 31.2 | 102 mL/min/kg | 13.7 min | 15300 ng·h/mL | 14800 ng·h/mL | 11.3 | 0.012 | 0.033 | –
CO[C@H]1C[C@H](c2nc3cccc(N4CCN(C)CC4)c3[nH]2)N(C)[C@H](c2ncccc2C)C1 [I-103] | 100 to 1000 nM | 0.01 to 100 nM | 10 to 30 ×10⁻⁶ cm/s | 10 to 30 ×10⁻⁶ cm/s | 0.1 to 10 | 7.3 | 102 mL/min/kg | 16.7 min | 3280 ng·h/mL | 449 ng·h/mL | – | – | – | –
Cc1cccnc1[C@@H]1CCC[C@H](c2nc3cccc(N4CCN(C)C5(CC5)C4)c3[nH]2)N1C [I-108] | 100 to 1000 nM | 0.01 to 100 nM | > 30 ×10⁻⁶ cm/s | 10 to 30 ×10⁻⁶ cm/s | 0.1 to 10 | 55.8 | 115 mL/min/kg | 15.1 min | 22800 ng·h/mL | 408 ng·h/mL | – | – | – | –
Cc1cccnc1[C@@H]1CCC[C@H](c2nc3cccc(N4C5CCC4CN(C)C5)c3[nH]2)N1 [I-120] | 0.01 to 100 nM | 0.01 to 100 nM | 10 to 30 ×10⁻⁶ cm/s | 10 to 30 ×10⁻⁶ cm/s | 0.1 to 10 | 1.05 | – | – | 5110 ng·h/mL | 4820 ng·h/mL | 0.07 | 0.014 | 0.201 | –
Cc1cccnc1[C@@H]1CCC[C@H](c2nc3cccc(N4CCN(C(C)C)CC4)c3[nH]2)N1 [I-128] | 0.01 to 100 nM | 0.01 to 100 nM | 0.1 to 10 ×10⁻⁶ cm/s | 10 to 30 ×10⁻⁶ cm/s | 0.1 to 10 | 2.5 | – | – | 3940 ng·h/mL | 1580 ng·h/mL | 0.2 | 0.011 | 0.135 | –
CN1CCC(n2ccnc2[C@H]2CCC[C@@H](c3ncccc3Cl)N2C)CC1 [I-170] | ≥ 1000 nM | 0.01 to 100 nM | 10 to 30 ×10⁻⁶ cm/s | 10 to 30 ×10⁻⁶ cm/s | 0.1 to 10 | 7.23 | 56 mL/min/kg | 229 min | 6410 ng·h/mL | 887 ng·h/mL | – | – | – | –
CN1CCC(n2ccnc2[C@H]2CCC[C@@H](c3ccccn3)N2)CC1 [I-180] | ≥ 1000 nM | ≥ 1000 nM | 0.1 to 10 ×10⁻⁶ cm/s | 10 to 30 ×10⁻⁶ cm/s | 0.1 to 10 | – | – | – | – | – | – | – | – | –

Further lines, with some results ahead:

IC50 [1] | IC50 [2] | Papp A→B at 90 min, 10 μM (in vitro) | Papp B→A at 90 min, 10 μM (in vitro) | efflux ratio at 90 min, 10 μM (in vitro) | Kp [4] | clearance [4] | half-life [4] | AUC(0-t) ([4]; brain, read-out: AUClast (b)) | AUC(0-t) ([4]; plasma, read-out: AUClast (P)) | Kp uu [4] | fraction unbound [4, 5] | fraction unbound [4, 6] | Structure (SMILES) | other results
0.01 to 100 nM | 0.01 to 100 nM | 0.1 to 10 ×10⁻⁶ cm/s | 10 to 30 ×10⁻⁶ cm/s | 0.1 to 10 | – | – | – | – | – | – | – | – | Cc1cccnc1[C@@H]1CCC[C@H](c2nc3ccccc3n2CC2CCN(C)CC2)N1C [I-15, 2-((2R,6S)-1-methyl-6-(3-methylpyridin-2-yl)piperidin-2-yl)-1-((1-methylpiperidin-4-yl)methyl)-1H-benzo[d]imidazole] | Kp [3]: 0.34; clearance [3]: 282 mL/min/kg; half-life [3]: 17.8 min; AUC(0-t) ([3]; brain, read-out: AUClast (b)): 55.3 ng·h/mL; AUC(0-t) ([3]; plasma, read-out: AUClast (P)): 161 ng·h/mL; Kp uu [3]: 0.02; fraction unbound [3, 5]: 0.004; fraction unbound [3, 6]: 0.076
0.01 to 100 nM | 0.01 to 100 nM | 10 to 30 ×10⁻⁶ cm/s | 10 to 30 ×10⁻⁶ cm/s | 0.1 to 10 | 44.5 | 212 mL/min/kg | 18.6 min | 9320 ng·h/mL | 209 ng·h/mL | – | – | – | Cc1cccnc1[C@@H]1CCC[C@H](c2nc3cccc(N4CCN5CCCC5C4)c3[nH]2)N1C (stereo partly drawn) [I-66] | –
0.01 to 100 nM | 0.01 to 100 nM | 10 to 30 ×10⁻⁶ cm/s | 10 to 30 ×10⁻⁶ cm/s | 0.1 to 10 | 15 | 168 mL/min/kg | 16.9 min | 4080 ng·h/mL | 272 ng·h/mL | 1.98 | 0.016 | 0.121 | Cc1cc(F)cnc1[C@@H]1CCC[C@H](c2nc3cccc(N4CCN(C)CC4)c3[nH]2)N1C [I-69] | –
0.01 to 100 nM | 0.01 to 100 nM | > 30 ×10⁻⁶ cm/s | 10 to 30 ×10⁻⁶ cm/s | 0.1 to 10 | 57.2 | 46.5 mL/min/kg | 11.6 min | 59800 ng·h/mL | 1050 ng·h/mL | – | – | – | Cc1cccnc1[C@@H]1CCC[C@H](c2nc3cccc(N4CCN(C5CC5)CC4)c3[nH]2)N1C [I-76] | –
0.01 to 100 nM | 0.01 to 100 nM | 0.1 to 10 ×10⁻⁶ cm/s | 0.1 to 10 ×10⁻⁶ cm/s | 0.1 to 10 | 7.96 | 33.3 mL/min/kg | 286 min | 11700 ng·h/mL | 1470 ng·h/mL | 1.01 | 0.019 | 0.149 | COc1ccnc([C@@H]2CCC[C@H](c3nc4cccc(N5CCN(C)CC5)c4[nH]3)N2C)c1C [I-81] | –
